Reference: patent US20070248705A1, “Agents for Activating the Transcription Factor Nrf2 and Foods Having Such Function” (KIRIN BEER KABUSHIKI KAISHA, priority 2004, published 2007)
Entries after “also recorded” stand apart in the source; their conditions may differ.

Legend:
[1] = test system: mouse macrophage cell line RAW264.7; test: Amount of intracellular glutathione; format: cell-based; conditions: RAW264.7, 3 μM, positive control
Experimental: A mouse macrophage cell line RAW264.7 was seeded on a φ60 mm dish (7×10^5 cells), 2 ml of a D-MEM medium (Invitrogen) supplemented with 10% fetal bovine serum (HyClone) and penicillin-streptomycin (100 units/ml and 100 μg/ml, respectively; Sigma) was added, and the dish was incubated at 37° C. in an atmosphere of 5% CO2 for 2 days. The medium was replaced with a fresh medium containing individual samples and incubation was continued for another 20 hours. The samples added were isohumulone (IH(F)) and isohumulone (IcH(G)) at a concentration of 25 μM. The cells were recovered, broken by ultrasonication, and centrifuged to obtain the supernatant, and the amount of the total intracellular glutathione was measured using a glutathione assay kit (Cayman Chemical) (n=2, mean±standard deviation). As a positive control, 15dPGJ2 (Cayman Chemical) was used.

[2] = test system: catalase 1 (CAT1); test: Expression of genes controlled by Nrf2 in RAW264.7: CAT1; format: cell-based, mouse; conditions: RAW264.7, 3 μM, positive control
Experimental: (§1) A mouse macrophage cell line RAW264.7 was seeded on a φ60 mm dish (9×10^5 cells), 2 ml of a D-MEM medium (Invitrogen) supplemented with 10% fetal bovine serum (HyClone) and penicillin-streptomycin (100 units/ml and 100 μg/ml, respectively; Sigma) was added, and the dish was incubated at 37° C. in an atmosphere of 5% CO2 for 2 days. The medium was replaced with a fresh medium containing individual samples and incubation was continued for another 20 hours. Then, the total RNA was prepared using TRIzol (Invitrogen) and purified using a RNeasy Mini kit (Qiagen) and an RNase-free DNase set (Qiagen). Further, cDNA was synthesized from 5 μg of the purified total RNA using a Thermo Script RT-PCR system (Invitrogen), and the amount of mRNA expression of various genes was determined using a FastStart DNA Master SYBR Green I kit (Roche) and a Light Cycler (Roche).
(§2) The amount of expression of the various genes was corrected by the amount of expression of the housekeeping gene PO and calculated as a relative expression level (n=2, mean±standard deviation). […]

[3] = test system: TNF-α; test: Suppression of TNF-α production by macrophages (TPA and IFN-γ); format: cell-based, mouse; conditions: RAW264.7, TPA 400 nM and IFN-γ 10 units/ml, positive control
Experimental: A mouse macrophage cell line RAW264.7 (4×10^4 cells/well) was seeded on a 96-well plate, […] of a D-MEM medium (Invitrogen) containing each sample, 10% fetal bovine serum (HyClone), and penicillin-streptomycin (100 units/ml and 100 μg/ml, respectively; Sigma) was added, and the plate was incubated at 37° C. in an atmosphere of 5% CO2 for 4 hours. Then 150 μl of a medium containing TPA (phorbol 12-tetradecanoate 13-acetate, Sigma), mouse IFN-γ (interferon-γ, eBioscience), and each sample was added and incubation was carried out for 24 hours. TPA and IFN-γ were added at a final concentration of 400 nM and 10 units/ml, respectively. As samples, isomerized hop extract was added at a concentration of 5, 10, 20, and 30 μ/ml and isohumulone (IH(F)) and isohumulone (IcH(G)) were added individually at a concentration of 5, 10, 20, and 40 μM.
After completing incubation, the amount of TNF-α in the culture fluid was measured using a mouse TNF-α ELISA kit(eBioscience). The amount of TNF-α was expressed as a relative value by setting the value for the control as 100% (n=3, mean±standard variation). As a positive control, 15dPGJ2 (Cayman Chemical) was used.

[4] = test system: glucose-6-phosphate dehydrogenase, X-linked (G6PDX); test: Expression of genes controlled by Nrf2 in RAW264.7: G6PDX; format: cell-based, mouse; conditions: RAW264.7, 3 μM, positive control
Experimental: as §1, §2

[5] = test system: thioredoxin reductase 1 (TXNRD1); test: Expression of genes controlled by Nrf2 in RAW264.7: TXNRD1; format: cell-based, mouse; conditions: RAW264.7, 3 μM, positive control
Experimental: as §1, §2

[6] = test system: glutathione S-transferase mu1 (GSTM1); test: Expression of genes controlled by Nrf2 in RAW264.7: GSTM1; format: cell-based, mouse; conditions: RAW264.7, 3 μM, positive control
Experimental: as §1, §2

[7] = test system: glutathione S-transferase pi2 (GSTP2); test: Expression of genes controlled by Nrf2 in RAW264.7: GSTP2; format: cell-based, mouse; conditions: RAW264.7, 3 μM, positive control
Experimental: as §1, §2

[8] = test system: mouse macrophage cell line RAW264.7; test: Suppressive action on cell death by hydrogen peroxide; format: cell-based; conditions: RAW264.7, 3 μM, positive control
Experimental: A mouse macrophage cell line RAW264.7 (6×10^4 cells/well) was incubated on a 96-well plate in 100 μl of a D-MEM medium (Invitrogen) containing individual samples, 10% fetal bovine serum (HyClone), and penicillin-streptomycin (100 units/ml and 100 μg/ml, respectively; Sigma) at 37° C. in an atmosphere of 5% CO2 overnight. The samples added were isohumulone (IH(F)) and isohumulone (IcH(G)) at a concentration of 25 μM. Hydrogen peroxide (Wako Pure Chemical Industries) was added hereto at a final concentration of 0.8 or 1.0 mM and incubation was continued for another 2 hours. Then, adsorption at 440 nm was measured using a microplate reader (Power Wave 200, Bio-Tek Instruments) with a cell growth reagent WST-1 (Roche Diagnostics). The cell survival rate for each sample was calculated by setting the value without hydrogen peroxide as 100% (n=2, mean±standard variation). As a positive control, 15dPGJ2 (Cayman Chemical) was used.

[9] = test system: glutamate cysteine ligase modifier subunit (GCLM); test: Expression of genes controlled by Nrf2 in RAW264.7: GCLM; format: cell-based, mouse; conditions: RAW264.7, 3 μM, positive control
Experimental: as §1, §2

[10] = test system: heme oxygenase 1 (HO1); test: Expression of genes controlled by Nrf2 in RAW264.7: HO1; format: cell-based, mouse; conditions: RAW264.7, 3 μM, positive control
Experimental: as §1, §2

[11] = test system: CD36; test: Expression of genes controlled by Nrf2 in RAW264.7: CD36; format: cell-based, mouse; conditions: RAW264.7, 3 μM, positive control
Experimental: as §1, §2

[12] = test system: NAD(P)H:quinone oxidoreductase (NQO1); test: Expression of genes controlled by Nrf2 in RAW264.7: NQO1; format: cell-based, mouse; conditions: RAW264.7, 3 μM, positive control
Experimental: as §1, §2

[13] = test system: glucose-6-phosphate dehydrogenase 2 (G6PD2); test: Expression of genes controlled by Nrf2 in RAW264.7: G6PD2; format: cell-based, mouse; conditions: RAW264.7, 3 μM, positive control
Experimental: as §1, §2

[14] = test system: quinone reductase (QR) activity in mouse hepatoma Hepa1c1c7 cells; test: Induction of quinone reductase (QR) activity; format: cell-based; conditions: Hepa1c1c7 cells, 0.6, 1.7, 5, and 15 μM, 48 hours
Experimental: It has been known that quinone reductase (QR) activity is increased by increasing the expression of NAD(P)H:quinone oxidoreductase (NQO1) by Nrf2 activation (Proc Natl Acad Sci USA. 101, 10446-51 (2004)). Accordingly, isohumulones were allowed to act on mouse hepatoma Hepa1c1c7 cells (available from Dainippon Pharmaceutical Co., Ltd.) to examine whether the QR activity was induced.
The QR activity was measured in accordance with the method described in Analytical Biochemistry 169, 328-336 (1988).
A mouse hepatoma cell line Hepa1c1c7 was seeded on a 96-well plate (7-10×10^3 cells/well), 50 μl each of an α-MEM medium (Invitrogen) supplemented with 10% fetal bovine serum (HyClone) and penicillin-streptomycin (100 units/ml and 100 μg/ml, respectively; Sigma) was added, and the plate was incubated at […] in an atmosphere of 5% CO2 overnight. Next, the culture medium was replaced with a medium containing isomerized hop extract individually at a concentration of 1.9, 5.6, 16.7, or 50 μg/ml, or with a medium containing humulone (H), cohumulone (cH), adhumulone (aH), isohumulone (IH), isohumulone (IcH), or isohumulone (IaH) individually at a concentration of 0.6, 1.7, 5, and 15 μM and the plate was further incubated for 48 hours. Then, the cells in each well were broken using 0.08% digitonin and a 2 mM EDTA solution and absorption at 610 nm was measured by a menadione-formazan system using a microplate reader (Power Wave 200, Bio-Tek Instruments).
The QR inducing activity was calculated as a relative activity setting the activity of cells without addition to be 1 (n=3, mean±standard variation). Sulforaphane (Sul, available from Sigma) was used as a positive control.

[15] = test system: ICAM-1; test: ICAM-1 expression in vascular endothelial cells (HAEC), TNF-α stimulation, flow cytometry; format: cell-based, human; conditions: TNF-α 1.25 ng/ml
Experimental: Normal human aorta endothelial cells (HAEC, available from Cambrex) were cultured in a φ100 mm dish using 10 ml of endothelial cell medium kit-2 (Takara Shuzo) at 37° C. in an atmosphere of 5% CO2. Here, 30 μg/ml isomerized hop extract, 10 μM sulforaphane (Sul), or 10 mM N-acetyl cysteine (NAC) was allowed to act overnight. Next, after stimulating with the addition of human TNF-α (ProSpec-Tany TechnoGene) at a final concentration of 1.25 ng/ml), the cells were detached using a reagent for subculturing (Takara Shuzo) and flow cytometry analysis was carried out. Here, biotin anti-human ICAM antibody or biotin anti-human VCAM antibody (available from eBioscience) was used as a primary antibody and PE conjugated streptavidin (available from eBioscience) was used as a secondary antibody. A flow cytometer used was a FACSort analyzer (Becton Dickinson).

With `CCCCC/C=C/C=C1/C(=O)C=C[C@@H]1C/C=C\CCCC(=O)O` [15dPGJ2, 15-deoxy-D12,14-prostaglandin J2, reference compound] the “amount of the total intracellular glutathione” value [1] was “Increased the amount of the total intracellular glutathione”, the “expression of CAT1” value [2] was “augmented the expression” and the TNF-α production [3] was “concentration-dependently suppressed”. For the same compound, the “expression of G6PDX” value [4] was “augmented the expression”, the “expression of TRNRD1” value [5] was “augmented the expression” and the “expression of GSTM1” value [6] was “augmented the expression”. The “expression of GSTP2” value [7] was “augmented the expression”, the “cell death by hydrogen peroxide (cell survival rate)” value ([8]; hydrogen peroxide 0.8 mM) was “suppressed cell death” and the “cell death by hydrogen peroxide (cell survival rate)” value ([8]; hydrogen peroxide 1.0 mM) was “suppressed cell death”. The “expression of GCLM” value [9] was “augmented the expression”, the “expression of HO1” value [10] was “augmented the expression” and the “expression of CD36” value [11] was “augmented the expression”. For the same compound, the “expression of NQO1” value [12] was “augmented the expression” and the “expression of G6PD2” value [13] was “augmented the expression”.

`CC(C)=CCC(=O)C1(O)C(O)=C(C(=O)CC(C)C)C(=O)C1CC=C(C)C` (stereo not drawn) [IH (E), isohumulone] was tested, and the QR inducing activity [14] was “activity was higher in isohumulones having a higher trans form content”.

For `CC(C)=CCC(=O)C1(O)C(O)=C(C(=O)CC(C)C)C(=O)C1CC=C(C)C` (stereo not drawn) [IH (H), isohumulone], the QR inducing activity [14] was “activity was higher in isohumulones having a higher trans form content”.

`CC(C)=CCC(=O)C1(O)C(O)=C(C(=O)CC(C)C)C(=O)C1CC=C(C)C` (stereo not drawn) [IH, isohumulone] was tested, and the QR inducing activity [14] was “Concentration-dependent QR inducing activity; also recorded: higher activity than isohumulone (IaH)”.

With `CCC(C)C(=O)C1=C(O)C(O)(C(=O)CC=C(C)C)C(CC=C(C)C)C1=O` (stereo not drawn) [IaH] the QR inducing activity [14] was “Concentration-dependent QR inducing activity”.

For `CC(C)=CCC(=O)C1(O)C(O)=C(C(=O)C(C)C)C(=O)C1CC=C(C)C` (stereo not drawn) [IcH], the QR inducing activity [14] was “higher activity than isohumulone (IaH)” and the QR inducing activity ([14]; listed as ICH) was “Concentration-dependent QR inducing activity”.

`CC(=O)N[C@@H](CS)C(=O)O` [N-acetyl cysteine] was tested, and the “expression of ICAM-1” value ([15]; 10 mM overnight) was “Such changes are also recognized”.

In the case of `CCC(C)C(=O)C1=C(O)C(CC=C(C)C)=C(O)C(O)(CC=C(C)C)C1=O` (stereo not drawn) [adhumulone, reference compound], the QR inducing activity [14] is reported as “no clear change”.

With `CC(C)=CCC1=C(O)C(O)(CC=C(C)C)C(=O)C(C(=O)C(C)C)=C1O` (stereo not drawn) [cohumulone, reference compound] the QR inducing activity [14] was “no clear change”.

With `C[S+]([O-])CCCCN=C=S` (stereo not drawn) [sulforaphane] the “expression of ICAM-1” value ([15]; 10 μM overnight) was “Such changes are also recognized”.
